# Data taken from patent US12605362B2, “Eletriptan hydrobromide for treatment of spinal cord injury and improvement of locomotor function” (TECHNOPHAGE, INVESTIGAÇÃO E DESENVOLVIMENTO EM …, priority 2020, dated 2026).
# Where a name gives a salt, the structure may show the parent alone.
# Experiments:
# Format in all cases: in vivo
# [1] = tested on: mice with T9 contusion type of injury; experiment: acetone evaporation assay (cold allodynia) after T9 contusion SCI; conditions: 14 dpi and 42 dpi, vs Vehicle
# Method: (§1) A moderate-severe contusion-type of injury was performed on adult C57BL/6 female mice (10-12 weeks) with an Infinite Horizon Impactor (PSI)^30. All surgeries were performed under aseptic conditions. Briefly, under deep anesthesia with Ketamine and Xylazine (120 mg/kg and 16 mg/kg respectively, i.p.) mice received a dorsal laminectomy at the level of 9th thoracic vertebra (T9). After securing the lateral processes of the 8th thoracic vertebra (T8) and 10th thoracic vertebra (T10) with a stainless-steel impactor tip, a controlled force-defined impact at 75 kdyne was delivered to the exposed spinal cord^28,30. Then, muscle and skin were closed with 4.0 polyglycolic acid (PGA) absorbable sutures (Safil, G1048213). In this study, mice were excluded when the actual displacement value was outside the interval 500-700 μm or if the actual force after impact was >2SD 75 Kdyne. […] Weight was monitored daily until 15 days-post-injury (dpi) and then weekly for the duration of the study and a high caloric pellet (Supreme Mini-Treats™ S05478 and S05472) was provided as a dietary supplement since a 10% weight loss was typically observed in this SCI model upon injury. […]
# An acetone evaporation assay was used to measure the sensitivity to a cold stimulus upon injury^33. […] In each trial, the time spent flicking or licking the hind paw for 60 seconds was measured using a timer and recorded for analysis^34. […]
# [2] = tested on: mice with T9 contusion type of injury; experiment: FluoroMyelin Green staining and white matter sparing analysis; conditions: 42 dpi; at lesion epicentre and over 700 μm rostrally and caudally, vs Vehicle
# Method: as §1, with “G1048213).” for “G1048213). In this study, mice were excluded when the actual displacement value was outside the interval 500-700 μm or if the actual force after impact was >2SD 75 Kdyne.”
# To quantify demyelination, one set of sections spaced 100 μm apart and spanning the entire block was stained with FluoroMyelin™ Green (ThermoFisher Scientific, F34651) for 1 hour. Z-stack compositions were acquired in a motorized inverted widefield fluorescence microscope (Zeiss Cell Observer, Carl Zeiss MicroImaging) with 10× magnification. […]
# [3] = tested on: mice with T9 contusion type of injury; experiment: fibrotic scar quantification (PDGFRβ / GFAP immunohistochemistry); conditions: 42 dpi, vs Vehicle
# Method: as §1, with “Kdyne. Immediately after injury, mice were injected subcutaneously with 0.5 ml of sterile saline and then daily for 5 days.” for “Kdyne.”
# (§2) For immunohistochemistry in sections, OCT was removed from the cryosections using PBS (30 minutes). […] For activated microglia quantification, sections were counterstained with DAPI. […]
# One set of sections was stained with anti-PDGFRβ and anti-GFAP to outline the border of the fibrotic scar area. Z-stack compositions were acquired in a motorized inverted widefield fluorescence microscope (Zeiss Cell Observer, Carl Zeiss MicroImaging) with 20× magnification. Fiji software was used to manually outline and calculate the PDGFRβ^+ area and total cross-sectional area to thereafter quantify the percentage of fibrotic scar area per total cross-sectional area. The rostral and caudal extents of fibrotic lesion were determined by inspection. […]
# [4] = tested on: mice with T9 contusion type of injury; experiment: PDGFRβ / CD31 (PECAM-1) double immunohistochemistry, vasculature association; conditions: sections 1000 μm from epicentre, 42 dpi, vs Vehicle
# Method: as §1, with “cord^28,30.” for “cord^28,30. Then, muscle and skin were closed with 4.0 polyglycolic acid (PGA) absorbable sutures (Safil, G1048213). In this study, mice were excluded when the actual displacement value was outside the interval 500-700 μm or if the actual force after impact was >2SD 75 Kdyne.”
# as §2
# To infer if increased levels of PDGFRβ^+ detected on the extremities of the lesion extents were associated with blood vessels we decided to performed a double immunohistochemistry using a pericyte marker PDGFRβ and an endothelial cell marker CD31 (PECAM-1) (FIG. 7). […]
# [5] = tested on: mice with T9 contusion type of injury; experiment: activated microglia quantification and morphology (P2Y12 / F4/80 immunohistochemistry); conditions: 42 dpi; for number of P2Y12+ F4/80+ (activated microglia) cells: vs Vehicle
# Method: A moderate-severe contusion-type of injury was performed on adult C57BL/6 female mice (10-12 weeks) with an Infinite Horizon Impactor (PSI)^30. All surgeries were performed under aseptic conditions. Briefly, under deep anesthesia with Ketamine and Xylazine (120 mg/kg and 16 mg/kg respectively, i.p.) mice received a dorsal laminectomy at the level of 9th thoracic vertebra (T9). After securing the lateral processes of the 8th thoracic vertebra (T8) and 10th thoracic vertebra (T10) with a stainless-steel impactor tip, a controlled force-defined impact at 75 kdyne was delivered to the exposed spinal cord^28,30. Then, muscle and skin were closed with 4.0 polyglycolic acid (PGA) absorbable sutures (Safil, G1048213). In this study, mice were excluded when the actual displacement value was outside the interval 500-700 μm or if the actual force after impact was >2SD 75 Kdyne. Immediately after injury, mice were injected subcutaneously with 0.5 ml of sterile saline and then daily for 5 days. During this experiment, mice underwent gentle bladder expression twice daily until they were voiding on their own. Weight was monitored daily until 15 days-post-injury (dpi) and then weekly for the duration of the study and a high caloric pellet (Supreme Mini-Treats™ S05478 and S05472) was provided as a dietary supplement since a 10% weight loss was typically observed in this SCI model upon injury. […]
# as §2
# To quantify the activated microglia one set of spinal cord sections were stained with anti-P2Y12 (a microglia specific marker) and anti-F4/80 (a pan macrophage marker) and counterstained with […] DAPI. Z-stack compositions were acquired in a motorized inverted widefield fluorescence microscope (Zeiss Cell Observer, Carl Zeiss MicroImaging) with 20× magnification. […]
structure (smiles),measurement,setting,value
"CN1CCC[C@@H]1Cc1c[nH]c2ccc(CCS(=O)(=O)c3ccccc3)cc12 [Eletriptan Hbr, Eletriptan Hydrobromide]",cumulative reaction time of nocifensive responses,[1],consistently but not a significantly decrease
same,number of episodes of the cold hypersensitivity,[1],lower number of episodes
same,spared white matter per total cross-sectional area,[2],not significantly but consistently higher
same,extension of PDGFRβ+ lesion core,[3],no statistically significant differences
same,extension of increased levels of PDGFRβ+ immunostaining,[3],statistically significant reduction
same,area of fibrotic lesion core,[3]; at lesion epicentre,no statistically significant differences
same,increased expression of PDGFRβ associated with CD31+ endothelial cells,[4],reduced
same,number of P2Y12+ F4/80+ (activated microglia) cells,[5],no statistically significant differences
same,number of P2Y12+ F4/80+ (activated microglia) cells,[5]; at 400 μm rostrally and caudally to the epicentre,consistently higher
same,P2Y12+ microglia morphology,"[5]; sections near or at the epicentre, feature not observed in Vehicle-treated mice","longer, ramified processes were also observed"
